Reference: patent US4532255A, “Amidine compounds and anticomplement agent comprising same” (Torii & Co., Ltd., priority 1980, dated 1985)

Experiments:
[1] = molecular target: T1, Trypsin (Bos taurus, UniProt P00760); assay: Anti-trypsin activity (hydrolysis of TAME); type: biochemical; conditions: for IC50: molar concentration inhibiting 50% of TAME hydrolysis, read-out: Trypsin ID50
T1 sequence (P00760 24-246): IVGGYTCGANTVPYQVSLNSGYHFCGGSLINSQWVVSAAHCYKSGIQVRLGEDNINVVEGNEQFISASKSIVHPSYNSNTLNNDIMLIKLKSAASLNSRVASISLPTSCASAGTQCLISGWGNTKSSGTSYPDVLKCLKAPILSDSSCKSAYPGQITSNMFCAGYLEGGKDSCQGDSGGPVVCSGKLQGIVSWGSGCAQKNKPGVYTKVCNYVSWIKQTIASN
Experimental: (§1) The anti-trypsin, anti-plasmin, anti-kallikrein and anti-thrombin activities were determined according to the method of Muramatsu et al. [M. Muramatsu, T. Onishi, S. Makino, Y. Hayashi and S. Fujii, J. of Biochem., 58, 214 (1965)]. […] The compound No. corresponds to the compound number shown in Examples.

[2] = molecular target: Plasmin (Homo sapiens, UniProt P00747); assay: Anti-plasmin activity (hydrolysis of TAME); type: biochemical; conditions: molar concentration inhibiting 50% of TAME hydrolysis; read-out: Plasmin ID50
Sequence of Plasmin (P00747 581-810 limits assumed, species assumed): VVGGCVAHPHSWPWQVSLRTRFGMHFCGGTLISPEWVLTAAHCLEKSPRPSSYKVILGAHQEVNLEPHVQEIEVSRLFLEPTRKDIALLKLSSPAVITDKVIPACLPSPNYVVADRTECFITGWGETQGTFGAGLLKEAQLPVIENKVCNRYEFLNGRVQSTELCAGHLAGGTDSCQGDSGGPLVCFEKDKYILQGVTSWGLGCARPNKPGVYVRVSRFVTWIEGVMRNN
Sequence of Plasmin (P00747 97-580 partner limits assumed, species assumed): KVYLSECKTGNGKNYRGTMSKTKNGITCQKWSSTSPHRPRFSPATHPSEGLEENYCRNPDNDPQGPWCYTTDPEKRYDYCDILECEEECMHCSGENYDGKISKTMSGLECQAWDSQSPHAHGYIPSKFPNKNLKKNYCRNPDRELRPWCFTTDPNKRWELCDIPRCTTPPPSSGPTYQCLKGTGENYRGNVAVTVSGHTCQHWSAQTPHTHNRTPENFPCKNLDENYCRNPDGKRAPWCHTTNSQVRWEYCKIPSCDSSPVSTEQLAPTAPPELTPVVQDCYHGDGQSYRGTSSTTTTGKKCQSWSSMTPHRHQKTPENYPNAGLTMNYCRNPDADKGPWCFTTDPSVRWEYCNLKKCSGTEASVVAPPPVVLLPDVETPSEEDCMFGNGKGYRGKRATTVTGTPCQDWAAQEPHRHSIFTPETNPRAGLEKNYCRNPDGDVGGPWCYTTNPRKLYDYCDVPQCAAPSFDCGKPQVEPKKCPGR
Experimental: as §1

[3] = system: Kallikrein; assay: Anti-kallikrein activity (hydrolysis of TAME); type: biochemical; conditions: molar concentration inhibiting 50% of TAME hydrolysis; read-out: Kallikrein ID50
Experimental: (§2) The anti-trypsin, anti-plasmin, anti-kallikrein and anti-thrombin activities were determined according to the method of Muramatsu et al. [M. Muramatsu, T. Onishi, S. Makino, Y. Hayashi and S. Fujii, J. of Biochem., 58, 214 (1965)]. The data summarized in Table 1 are expressed in terms of molar concentration (ID50) of the test compound which inhibits 50% of the activity of each enzyme to hydrolyze TAME (tosylalginine methyl ester). The compound No. corresponds to the compound number shown in Examples.

[4] = molecular target: Thrombin (Homo sapiens, UniProt P00734); assay: biochemical; conditions: for IC50: molar concentration inhibiting 50% of TAME hydrolysis, read-out: Thrombin ID50; for inhibition at 10 µM: at 1×10^-5 M, read-out: Thrombin percentage inhibition
Experimental: as §2

[5] = molecular target: T2, C1r (Homo sapiens, UniProt P00736); assay: Anti-C1 esterase (C1r) activity (hydrolysis of AAME); type: biochemical; conditions: AAME hydrolysis; read-out: Anti-C1 activity, C1r ID50
T2 sequence (P00736 464-705 limits assumed): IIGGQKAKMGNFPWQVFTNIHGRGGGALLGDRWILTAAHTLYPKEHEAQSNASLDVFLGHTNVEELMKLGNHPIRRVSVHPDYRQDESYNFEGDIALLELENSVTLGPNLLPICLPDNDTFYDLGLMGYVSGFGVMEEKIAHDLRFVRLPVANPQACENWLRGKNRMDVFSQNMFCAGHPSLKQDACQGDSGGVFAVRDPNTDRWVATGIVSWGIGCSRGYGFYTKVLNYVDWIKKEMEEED
T2 sequence (P00736 18-463 partner limits assumed): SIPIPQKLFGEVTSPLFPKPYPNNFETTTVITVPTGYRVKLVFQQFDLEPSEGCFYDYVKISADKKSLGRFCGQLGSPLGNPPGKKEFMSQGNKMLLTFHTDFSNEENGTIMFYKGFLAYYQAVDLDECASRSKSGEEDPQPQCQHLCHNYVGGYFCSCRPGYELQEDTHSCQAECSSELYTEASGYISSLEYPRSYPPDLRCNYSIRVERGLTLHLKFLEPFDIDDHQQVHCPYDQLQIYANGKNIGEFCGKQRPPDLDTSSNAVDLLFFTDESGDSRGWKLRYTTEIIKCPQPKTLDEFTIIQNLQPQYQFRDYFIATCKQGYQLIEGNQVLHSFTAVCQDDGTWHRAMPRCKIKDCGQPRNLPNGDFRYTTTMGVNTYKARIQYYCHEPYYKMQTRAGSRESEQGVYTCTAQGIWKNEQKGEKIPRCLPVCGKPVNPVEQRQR
Experimental: The anti-Cl esterase ([…]) activity was determined according to the method of Okamura et al. [K. Okamura, M. Muramatsu and S. Fujii, Biochem. Biophys.

[6] = molecular target: T3, C1s (Homo sapiens, UniProt P09871); assay: biochemical; conditions: ATEE hydrolysis; read-out: Anti-C1 activity, C1s ID50
T3 sequence (P09871 438-688 limits assumed): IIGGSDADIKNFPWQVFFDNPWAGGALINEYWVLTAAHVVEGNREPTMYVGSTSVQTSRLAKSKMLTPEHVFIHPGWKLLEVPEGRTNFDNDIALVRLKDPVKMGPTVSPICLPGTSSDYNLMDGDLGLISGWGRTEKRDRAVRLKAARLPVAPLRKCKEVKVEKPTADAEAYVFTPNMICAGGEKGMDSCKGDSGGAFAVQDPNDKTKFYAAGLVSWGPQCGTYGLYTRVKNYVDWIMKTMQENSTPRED
T3 sequence (P09871 16-437 partner limits assumed): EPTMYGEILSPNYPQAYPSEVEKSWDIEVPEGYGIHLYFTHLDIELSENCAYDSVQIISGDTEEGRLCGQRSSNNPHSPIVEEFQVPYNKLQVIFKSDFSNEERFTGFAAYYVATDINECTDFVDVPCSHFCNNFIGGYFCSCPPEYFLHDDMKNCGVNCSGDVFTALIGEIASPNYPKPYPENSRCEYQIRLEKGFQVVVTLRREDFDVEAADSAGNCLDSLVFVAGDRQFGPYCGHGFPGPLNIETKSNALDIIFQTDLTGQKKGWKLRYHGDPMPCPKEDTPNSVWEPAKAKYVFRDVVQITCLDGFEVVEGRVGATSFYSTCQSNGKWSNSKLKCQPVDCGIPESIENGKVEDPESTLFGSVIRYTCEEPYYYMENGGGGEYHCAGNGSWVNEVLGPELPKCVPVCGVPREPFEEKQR
Experimental: The anti-Cl esterase (Clr, Cls) activity was determined according to the method of Okamura et al. [K. Okamura, M. Muramatsu and S. Fujii, Biochem. Biophys. […] The figures in Table 2 have the following meanings:
Cls: Molar concentration of the test compound which inhibits 50% of the ability of Cls to hydrolyse ATEE (acetyltyrosin ethyl ester).

[7] = system: complement mediated hemolysis; assay: Inhibition of complement mediated hemolysis; type: cell-based

IC50 [1] | IC50 [2] | IC50 [3] | inhibition at 10 µM [4] | inhibition at 10 µM ([1]; at 1×10^-5 M, read-out: Trypsin percentage inhibition) | SMILES | IC50 [4] | IC50 [5] | IC50 [6] | Inhibition of complement mediated hemolysis (%) ([7]; 1 × 10^-5) | Inhibition of complement mediated hemolysis (%) ([7]; 1 × 10^-6) | Inhibition of complement mediated hemolysis (%) ([7]; 1 × 10^-7) | Inhibition of complement mediated hemolysis (%) ([7]; 1 × 10^-4)
0.1 µM | 0.6 µM | 1 µM | – | – | COc1ccc(C=CC(=O)Oc2ccc3cc(C(=N)N)ccc3c2)cc1OC [Compound 59] | 6 µM | – | – | – | – | – | –
5 µM | 2 µM | > 10 µM | 43% | – | Cc1ccc(CCC(=O)Oc2ccc3cc(C(=N)N)ccc3c2)cc1 [Compound 48] | – | – | – | – | – | – | –
– | – | – | – | – | CC(=O)Oc1ccc(CCC(=O)Oc2ccc3cc(C(=N)N)ccc3c2)cc1 [Compound 50] | – | – | – | 16% | 1% | 11% | 49%
2 µM | 0.5 µM | > 10 µM | 22% | – | Cc1ccc(C=CC(=O)Oc2ccc3cc(C(=N)N)ccc3c2)cc1 [Compound 58] | – | – | – | – | – | – | –
– | – | – | – | – | N=C(N)c1ccc2cc(OC(=O)CCCc3ccccc3)ccc2c1 [Compound 54, 6-amidino-2-naphthyl 4-phenylbutyrate] | – | > 10 µM | > 10 µM | 10% | 10% | 4% | 12%
– | – | – | – | – | N=C(N)c1ccc2cc(OC(=O)Cc3ccc(Cl)cc3)ccc2c1 [Compound 44] | – | > 10 µM | > 10 µM | 21% | 0% | 18% | 89%
0.3 µM | 20 µM | 50 µM | – | – | CN(C)c1ccc(C(=O)Oc2ccc3cc(C(=N)N)ccc3c2)cc1 [Compound 24, 6-amidino-2-naphthyl 4-dimethylaminobenzoate] | 60 µM | – | – | – | – | – | –
0.3 µM | 2 µM | 9 µM | – | – | CC(C)(C)c1ccc(C(=O)Oc2ccc3cc(C(=N)N)ccc3c2)cc1 [Compound 5] | 3 µM | – | – | – | – | – | –
3 µM | 2 µM | > 10 µM | 24% | – | N=C(N)c1ccc2cc(OC(=O)C=Cc3ccc([N+](=O)[O-])cc3)ccc2c1 [Compound 62, 6-amidino-2-naphthyl 4-nitrocinnamate] | – | – | – | – | – | – | –
20 µM | 20 µM | 100 µM | – | – | CN(C)c1cccc(C(=O)Oc2ccc3cc(C(=N)N)ccc3c2)c1 [Compound 23, 6-amidino-2-naphthyl 3-dimethylaminobenzoate] | 10 µM | – | – | – | – | – | –
– | – | – | – | – | N=C(N)c1ccc2cc(OC(=O)COc3ccc(Cl)cc3Cl)ccc2c1 [Compound 70] | – | > 10 µM | > 10 µM | 1% | 0% | 2% | 26%
– | > 10 µM | > 10 µM | – | 38% | Cc1ccccc1C(=O)Oc1ccc2cc(C(=N)N)ccc2c1 [Compound 2, 6-amidino-2-naphthyl 2-methylbenzoate] | > 10 µM | – | – | – | – | – | –

SMILES | IC50 [1] | IC50 [2] | IC50 [3] | inhibition at 10 µM [4] | inhibition at 10 µM ([1]; at 1×10^-5 M, read-out: Trypsin percentage inhibition) | IC50 [4] | IC50 [5] | IC50 [6] | Inhibition of complement mediated hemolysis (%) ([7]; 1 × 10^-5) | Inhibition of complement mediated hemolysis (%) ([7]; 1 × 10^-6) | Inhibition of complement mediated hemolysis (%) ([7]; 1 × 10^-7) | Inhibition of complement mediated hemolysis (%) ([7]; 1 × 10^-4)
N=C(N)c1ccc2cc(OC(=O)C=Cc3ccccc3)ccc2c1 [Compound 57, 6-amidino-2-naphthyl cinnamate] | 5 µM | 3 µM | 50 µM | – | – | 10 µM | 30 µM | 3 µM | 80% | 24% | 23% | –
N=C(N)c1ccc2cc(OC(=O)C=Cc3cccc(C(F)(F)F)c3)ccc2c1 [Compound 66] | 6 µM | 0.5 µM | > 10 µM | 21% | – | – | 6 µM | 4 µM | 6% | 1% | 1% | 60%
Cc1ccc(C(=O)Oc2ccc3cc(C(=N)N)ccc3c2)cc1 [Compound 4] | 1 µM | 0.5 µM | 8 µM | – | – | 20 µM | 0.4 µM | 0.07 µM | 85% | 37% | 21% | –
COc1ccccc1OCC(=O)Oc1ccc2cc(C(=N)N)ccc2c1 [Compound 68] | > 10 µM | > 10 µM | > 10 µM | – | – | 10 µM | > 10 µM | > 10 µM | 4% | 0% | 0% | 91%
CC(=O)Nc1ccc(C(=O)Oc2ccc3cc(C(=N)N)ccc3c2)cc1 [Compound 25, 6-amidino-2-naphthyl 4-acetylaminobenzoate] | – | – | 100 µM | – | – | 60 µM | 0.7 µM | 0.4 µM | 26% | 1% | 0% | 64%
COC(=O)c1ccc(C(=O)Oc2ccc3cc(C(=N)N)ccc3c2)cc1 [Compound 14] | 0.3 µM | 0.5 µM | – | – | – | 3 µM | 7 µM | 6 µM | 15% | 1% | 3% | 61%
N=C(N)c1ccc2cc(OC(=O)c3ccc(CNC(=O)OCc4ccccc4)cc3)ccc2c1 [Compound 21, 6-amidino-2-naphthyl 4-benzyloxycarbonylaminomethylbenzoate] | 0.6 µM | – | 10 µM | – | – | > 10 µM | 0.7 µM | 0.5 µM | 66% | 14% | 0% | 0%
